Test results as given in patent US20190330226A1, “POSITIVE ALLOSTERIC MODULATORS OF THE MUSCARINIC ACETYLCHOLINE RECEPTOR M1” (Vanderbilt University, priority 2018, published 2019).

Target: T1, human mAChR M1 (Homo sapiens, UniProt P11229)
T1 construct: host or cells: CHO-K1 (ATCC), stably transfected using Lipofectamine 2000
T1 sequence (P11229 1-460): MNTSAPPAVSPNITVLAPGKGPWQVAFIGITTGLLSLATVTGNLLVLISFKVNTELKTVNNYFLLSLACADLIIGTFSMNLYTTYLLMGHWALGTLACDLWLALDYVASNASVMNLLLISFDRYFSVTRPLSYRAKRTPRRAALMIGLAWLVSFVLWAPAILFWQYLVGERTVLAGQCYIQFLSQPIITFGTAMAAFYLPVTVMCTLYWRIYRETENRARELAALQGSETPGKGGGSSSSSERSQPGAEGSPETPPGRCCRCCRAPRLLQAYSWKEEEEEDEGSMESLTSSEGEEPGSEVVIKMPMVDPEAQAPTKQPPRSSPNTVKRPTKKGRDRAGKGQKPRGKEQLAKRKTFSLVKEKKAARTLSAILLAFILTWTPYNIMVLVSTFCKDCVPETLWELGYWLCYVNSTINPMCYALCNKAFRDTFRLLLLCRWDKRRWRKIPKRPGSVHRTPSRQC
Experiment: mAChR M1 cell-based functional assay (calcium mobilization, Fluo-4, FDSS)
Settings: CHO-K1 cells stably expressing hM1, calcium flux; for Emax: PAM mode with EC20 acetylcholine; for EC50: concentration-dependent increase in the EC20 acetylcholine response
Excerpt: Chinese hamster ovary (CHO-K1) cells stably expressing rat (r)M1 were purchased from the American Type Culture Collection and cultured according to their indicated protocol. CHO cells stably expressing human (h)M2, hM3, and hM5 were described previously (Levey, et al., 1991); hM1 and hM4 cDNAs were purchased from Missouri S&T cDNA Resource; rM4 cDNA was provided by T. I. Bonner (National Institutes of Health, Bethesda, Md.). rM2 and rM3 were cloned from a rat brain cDNA library and sequence verified. hM1, rM2, rM3, hM4, and rM4 cDNAs were used to stably transfect CHO-K1 cells purchased from the American Type Culture Collection using Lipofectamine 2000. To make stable rM2, hM2, rM3, hM4, and rM4 cell lines for use in calcium mobilization assays, these cells also were stably transfected with a chimeric G-protein (Gqi5) (provided by B. R. Conklin, University of California, San Francisco) using Lipofectamine 2000. rM1, hM1, rM3, hM3, rM5, and hM5 cells were grown in Ham's F-12 medium containing 10% heat-inactivated fetal bovine serum (FBS), 20 mM HEPES, and 50 µg/mL G418 sulfate. rM2-Gqi5, hM2-Gqi5, and hM4-Gqi5 cells were grown in the same medium also containing 500 μg/mL Hygromycin B. Stable rM4-Gqi5 cells were grown in DMEM containing 10% heat-inactivated FBS, 20 mM HEPES, 400 μg/mL G418 sulfate, and 500 μg/mL Hygromycin B.
For high throughput measurement of agonist-evoked increases in intracellular calcium, CHO-K1 cells stably expressing muscarinic receptors were plated in growth medium lacking G418 and hygromycin at 15,000 cells/20 μL/well in Greiner 384-well black-walled, tissue culture (TC)-treated, clear-bottom plates (VWR). Cells were incubated overnight at 37° C. and 5% CO2. The next day, cells were washed using an ELX 405 (BioTek) with four washes ([…]) of assay buffer then aspirated to 20 μL. Next, 20 μL of 16 μM Fluo-4/acetoxymethyl ester (Invitrogen, Carlsbad, Calif.) prepared as a 2.3 mM stock in DMSO and mixed in a 1:1 ratio with 10% (w/v) Pluronic F-127 and diluted in assay buffer was added to the wells and the cell plates were incubated for 50 min at 37° C. and 5% CO2. Dye was removed by washing with the ELX 405 (four 80 μL washes of assay buffer) then aspirated to 20 μL. Compound master plates were formatted in an 11 point CRC format (1:3 dilutions) in 100% DMSO with a starting concentration of 10 mM using the BRAVO liquid handler (Agilent). Test compound CRCs were then transferred to daughter plates (240 nL) using the Echo acoustic plate reformatter (Labcyte, Sunnyvale, Calif.) and then diluted into assay buffer (40 μL) to a 2× stock using a Thermo Fisher Combi (Thermo Fisher Scientific, Waltham, Mass.).
Calcium flux was measured using the Functional Drug Screening System (FDSS) 6000 (Hamamatsu Corporation, Tokyo, Japan) as an increase in the fluorescent static ratio. Compounds were applied to cells (20 μL, 2×) using the automated system of the FDSS 6000 at 4 s into the 300 s protocol and the data were collected at 1 Hz. At 144 s into the 300s protocol, 10 μL of an EC20 concentration of the muscarinic receptor agonist acetylcholine was added (5×), followed by the addition of 12 μL an EC80 concentration of acetylcholine at the 230 s time point (5×). Agonist activity was analyzed as a concentration-dependent increase in calcium mobilization upon compound addition. Positive allosteric modulator activity was analyzed as a concentration-dependent increase in the EC20 acetylcholine response. Antagonist activity was analyzed as a concentration-dependent decrease in the EC80 acetylcholine response. Concentration-response curves were generated using a four-parameter logistical equation in XLfit curve fitting software (IDBS, Bridgewater, N.J.) for Excel (Microsoft, Redmond, Wash.) or Prism (GraphPad Software, Inc., San Diego, Calif.).
Activity (EC50 and Emax) was determined in the mAChR M1 cell-based functional assay as described above and the data are shown in Table 2. […]

Row | Emax [%] | EC50 [nM] | SMILES
1 | 57 | 5180 | Cn1cc2c(-c3cc(F)c(CN4Cc5cn(CCN6CCCC6)nc5C4=O)c(F)c3)cccc2n1 [Compound 21, 5-(2,6-difluoro-4-(2-methyl-2H-indazol-4-yl)benzyl)-2-(2-(pyrrolidin-1-yl)ethyl)-4,5-dihydropyrrolo[3,4-c]pyrazol-6(2H)-one]
2 | 28 | 370 | Cn1cc2cc(-c3cc(F)c(CN4Cc5ncsc5C4=O)c(F)c3)ccc2n1 [Compound 22, 5-(2,6-difluoro-4-(2-methyl-2H-indazol-5-yl)benzyl)-4,5-dihydro-6H-pyrrolo[3,4-d]thiazol-6-one]
3 | 27 |  | Cc1ccc(-c2cc(F)c(CN3Cc4ncsc4C3=O)c(F)c2)cn1 [Compound 23, 5-(2,6-difluoro-4-(6-methylpyridin-3-yl)benzyl)-4,5-dihydro-6H-pyrrolo[3,4-d]thiazol-6-one]
4 | 80 | 910 | Cn1cc2c(-c3cc(F)c(CN4Cc5cnn(CCO)c5C4=O)c(F)c3)cccc2n1 [Compound 24, 5-(2,6-difluoro-4-(2-methyl-2H-indazol-4-yl)benzyl)-1-(2-hydroxyethyl)-4,5-dihydropyrrolo[3,4-c]pyrazol-6(1H)-one]
5 | 74 | 9150 | Cn1cc2c(-c3cc(F)c(CN4Cc5cn(CCO)nc5C4=O)c(F)c3)cccc2n1 [Compound 25, 5-(2,6-difluoro-4-(2-methyl-2H-indazol-4-yl)benzyl)-2-(2-hydroxyethyl)-4,5-dihydropyrrolo[3,4-c]pyrazol-6(2H)-one]
6 | 59 | 1020 | Cn1cc2cc(-c3cc(F)c(CN4Cc5sccc5C4=O)c(F)c3)ccc2n1 [Compound 26, 5-(2,6-difluoro-4-(2-methyl-2H-indazol-5-yl)benzyl)-5,6-dihydro-4H-thieno[2,3-c]pyrrol-4-one]
7 | 60 | 2870 | Cn1cnc2ccc(-c3cc(F)c(CN4Cc5sccc5C4=O)c(F)c3)cc21 [Compound 27, 5-(2,6-difluoro-4-(1-methyl-1H-benzo[d]imidazol-6-yl)benzyl)-5,6-dihydro-4H-thieno[2,3-c]pyrrol-4-one]
8 | 57 |  | Cc1n[nH]c2ccc(-c3cc(F)c(CN4Cc5sccc5C4=O)c(F)c3)cc12 [Compound 28, 5-(2,6-difluoro-4-(3-methyl-1H-indazol-5-yl)benzyl)-5,6-dihydro-4H-thieno[2,3-c]pyrrol-4-one]
9 | 45 |  | Cc1cc(-c2cc(F)c(CN3Cc4sccc4C3=O)c(F)c2)cc2cn[nH]c12 [Compound 29, 5-(2,6-difluoro-4-(7-methyl-1H-indazol-5-yl)benzyl)-5,6-dihydro-4H-thieno[2,3-c]pyrrol-4-one]
10 | 30 | 500 | O=C1c2ccsc2CN1Cc1c(F)cc(-c2ccc3nccn3c2)cc1F [Compound 30, 5-(2,6-difluoro-4-(imidazo[1,2-a]pyridin-6-yl)benzyl)-5,6-dihydro-4H-thieno[2,3-c]pyrrol-4-one]
11 | 40 | 246 | Cn1cc2cc(-c3cc(F)c(CN4Cc5ccsc5C4=O)c(F)c3)ccc2n1 [Compound 31, 5-(2,6-difluoro-4-(2-methyl-2H-indazol-5-yl)benzyl)-4,5-dihydro-6H-thieno[2,3-c]pyrrol-6-one]
12 | 67 | 4900 | Cn1cc(-c2ccc(CN3Cc4ccsc4C3=O)c(F)c2)cn1 [Compound 32, 5-(2-fluoro-4-(1-methyl-1H-pyrazol-4-yl)benzyl)-4,5-dihydro-6H-thieno[2,3-c]pyrrol-6-one]
13 | 56 | 2230 | Cn1cc2cc(-c3cc(F)c(CN4Cc5scc(Br)c5C4=O)c(F)c3)ccc2n1 [Compound 33, 3-bromo-5-(2,6-difluoro-4-(2-methyl-2H-indazol-5-yl)benzyl)-5,6-dihydro-4H-thieno[2,3-c]pyrrol-4-one]
14 | 35 |  | Cn1cc(-c2cc(F)c(CN3Cc4cn(CC5CCCO5)nc4C3=O)c(F)c2)cn1 (stereo not shown) [Compound 34, 5-(2,6-difluoro-4-(1-methyl-1H-pyrazol-4-yl)benzyl)-2-((tetrahydrofuran-2-yl)methyl)-4,5-dihydropyrrolo[3,4-c]pyrazol-6(2H)-one]
15 | 73 |  | Cn1cc(-c2cc(F)c(CN3Cc4cnn(CC5CCCO5)c4C3=O)c(F)c2)cn1 (stereo not shown) [Compound 35, 5-(2,6-difluoro-4-(1-methyl-1H-pyrazol-4-yl)benzyl)-1-((tetrahydrofuran-2-yl)methyl)-4,5-dihydropyrrolo[3,4-c]pyrazol-6(1H)-one]
16 | 82 | 1480 | Cn1cc2cc(-c3cc(F)c(CN4Cc5cnn(CC6CCCO6)c5C4=O)c(F)c3)ccc2n1 (stereo not shown) [Compound 36, 5-(2,6-difluoro-4-(2-methyl-2H-indazol-5-yl)benzyl)-1-((tetrahydrofuran-2-yl)methyl)-4,5-dihydropyrrolo[3,4-c]pyrazol-6(1H)-one]
17 | 77 | 3220 | Cc1nn(C)cc1-c1cc(F)c(CN2Cc3cnn(CC4CCCO4)c3C2=O)c(F)c1 (stereo not shown) [Compound 37, 5-(4-(1,3-dimethyl-1H-pyrazol-4-yl)-2,6-difluorobenzyl)-1-((tetrahydrofuran-2-yl)methyl)-4,5-dihydropyrrolo[3,4-c]pyrazol-6(1H)-one]
18 | 66 | 6890 | Cn1cc2cccc(-c3cc(F)c(CN4Cc5cnn(CC6CCCO6)c5C4=O)c(F)c3)c2n1 (stereo not shown) [Compound 38, 5-(2,6-difluoro-4-(2-methyl-2H-indazol-7-yl)benzyl)-1-((tetrahydrofuran-2-yl)methyl)-4,5-dihydropyrrolo[3,4-c]pyrazol-6(1H)-one]
19 | 65 | 3580 | Cc1cc(-c2cc(F)c(CN3Cc4cnn(CC5CCCO5)c4C3=O)c(F)c2)ccn1 (stereo not shown) [Compound 39, 5-(2,6-difluoro-4-(2-methylpyridin-4-yl)benzyl)-1-((tetrahydrofuran-2-yl)methyl)-4,5-dihydropyrrolo[3,4-c]pyrazol-6(1H)-one]
20 | 67 | 3970 | Cn1cc2c(-c3ccc(CN4Cc5sccc5C4=O)c(F)c3)cccc2n1 [Compound 40, 5-(2-fluoro-4-(2-methyl-2H-indazol-4-yl)benzyl)-5,6-dihydro-4H-thieno[2,3-c]pyrrol-4-one]
21 | 69 |  | Cn1cc(-c2ccc(CN3Cc4sccc4C3=O)c(F)c2)cn1 [Compound 41, 5-(2-fluoro-4-(1-methyl-1H-pyrazol-4-yl)benzyl)-5,6-dihydro-4H-thieno[2,3-c]pyrrol-4-one]
22 | 46 |  | Cn1ccc(-c2ccc(CN3Cc4sccc4C3=O)c(F)c2)n1 [Compound 42, 5-(2-fluoro-4-(1-methyl-1H-pyrazol-3-yl)benzyl)-5,6-dihydro-4H-thieno[2,3-c]pyrrol-4-one]
